# Laboratory results as given in patent US20040006103A1, “Use of chloroquine, hydroxychloroquine and 4 amino-quinolinic derivatives to obtain a drug for the anti retroviral therapy, active towards HIV sensitive strains and towards HIV strains which are resistant to both nucleosidic and non-nucleosidic reverse transcriptase inhibitors and to proteases …” (VALPHARMA S.A., priority 2002, published 2004).
# Like-named read-outs stand apart in the source and are kept apart here.
# Assays:
# Format in all cases: cell-based
# [1] = tested on: HIV-1 clinical isolated, characterised by mutations in the RT gene inducing geno-phenotypic resistance to d4T; test: p24 production susceptibility test (ACTG protocol), Table 4; settings: PBMC; for S.I. CQ: I.C.50/E.C.50; for Fen. CQ (fold): ratio to HIV-IIIB
# From the text: (§1) For the phenotype of the nucleosidic, non-nucleosidic and proteases inhibitors was utilised a method which consider the use of human PBMC and the protocol standardised by the AIDS Clinical Trials Group, after verifying the genotype by sequence analysis.
# (§2) In order to assay in vitro the susceptibility to chloroquine and hydroxychloroquine of the viral strains, it was used the protocol of the ACTG which is characterised by the measure, of the production of antigen p24 in strongly infected cells.
# (§3) The susceptibility of the viral strains to chemotherapics was determined in cell cultures, prepared in 96 wells microplates, using, for the infection, 0.1 MOI.
# (§4) The supernatant of the infected cultures (either in absence or in presence of different concentrations of chemotherapic) were tested for the production of p24 after 7 days, using an ELISA test which is commercially available.
# (§5) The concentrations of chloroquine and hydroxychloroquine tested ranged from 0.5 to 15 uM. At the same time non-infected cells were incubated with concentrations of chloroquine and hydroxychloroquine ranging from 0 to 50 uM to evaluate the toxicity of the compound.
# (§6) After 4 day from the infection, half the cellular medium was replaced with a medium containing the corresponding dilution of chloroquine and hydroxychloroquine. The percentage of inhibition of the HIV replication, induced by chloroquine and hydroxychloroquine, was determined, after 7 day from the infection, comparing the levels of p24 of this cultures and that of the control, infected and not treated with chloroquine and hydroxychloroquine.
# (§7) Therefore, the E.C.50 of chloroquine and hydroxychloroquine expresses the concentration of chemotherapic that inhibits the 50% of production of p24 and the values were calculated using linear and non linear regression analysis (the significativity for the non linear regression was R^2>0.95).
# (§8) In the same experimental conditions and in the same day, but with similar concentrations of chloroquine and hydroxychloroquine, it was evaluated the vitality of the infect cell cultures, and this was expressed as I.C.50.
# (§9) I.C.50 (Inhibitory Concentration) indicates the concentration of the chemotherapic agent inhibiting the vitality of the cell cultures at a rate of 50%, when there is not infection.
# [2] = tested on: HIV-1 clinical isolated, characterised by mutations in the protease gene inducing geno-phenotypic resistance to SQV; test: p24 production susceptibility test (ACTG protocol), Table 8; settings: for EC50: Human immunodeficiency virus 1, PBMC, read-out: E.C.50 CQ; for S.I. CQ / Fen. CQ (fold): PBMC; for S.I. CQ: I.C.50/E.C.50; for Fen. CQ (fold): ratio to HIV-IIIB
# From the text: as §1, §2, §3, §4, §5, §6, §7, §8, §9
# [3] = tested on: HIV-1 clinical isolated, characterised by mutations in the protease gene inducing geno-phenotypic resistance to IDV; test: p24 production susceptibility test (ACTG protocol), Table 9; settings: for EC50: Human immunodeficiency virus 1, PBMC; for S.I. CQ: I.C.50/E.C.50; for Fen. CQ (fold): ratio to HIV-IIIB
# From the text: as §1, §2, §3, §4, §5, §6, §7, §8, §9
# [4] = tested on: HIV-1 strains cultivated in PBMC and isolated from patient naive to the treatment; test: p24 production susceptibility test (ACTG protocol), Table 11; settings: for EC50: Human immunodeficiency virus 1, PBMC; for S.I. CQ: I.C.50/E.C.50
# Procedure: as §2, §3, §4, §5, §6, §7, §8, §9
# [5] = PBMC, Gen. K20R E35D M36I I54V V82T
compound,measurement,setting,value
"CCN(CC)CCCC(C)Nc1ccnc2cc(Cl)ccc12 (stereo not drawn) [CQ, chloroquine]",S.I. CQ,[1]; Gen. T69SSS T215Y,3.4
same,Fen. CQ (fold),[1]; Gen. T69SSS T215Y,1.8X fold
same,S.I. CQ,[1]; Gen. V75I F77L F116Y Q151M,3
same,Fen. CQ (fold),[1]; Gen. V75I F77L F116Y Q151M,1.5X fold
same,EC50,[2]; Gen. G48V I84V A74V L90M,1800 nM
same,EC50,[2]; Gen. G48V V82A,3500 nM
same,EC50,[2]; Gen. I84V L90M,2500 nM
same,EC50,[2]; Gen. M46I G48V L63P L90M,2000 nM
same,EC50,[2]; Gen. V82A L90M,1500 nM
same,S.I. CQ,[2]; Gen. G48V I84V A74V L90M,5.5
same,Fen. CQ (fold),[2]; Gen. G48V I84V A74V L90M,1X fold
same,S.I. CQ,[2]; Gen. G48V V82A,3.4
same,Fen. CQ (fold),[2]; Gen. G48V V82A,1.9X fold
same,S.I. CQ,[2]; Gen. I84V L90M,3.6
same,Fen. CQ (fold),[2]; Gen. I84V L90M,1.3X fold
same,S.I. CQ,[2]; Gen. M46I G48V L63P L90M,6.7
same,Fen. CQ (fold),[2]; Gen. M46I G48V L63P L90M,1.1X fold
same,S.I. CQ,[2]; Gen. V82A L90M,6
same,Fen. CQ (fold),[2]; Gen. V82A L90M,0.8X fold
same,EC50,"[3]; PBMC, Gen. G48V V82A, read-out: E.C.50 CQ",2.5 µM
same,EC50,"[3]; PBMC, Gen. I84V L90M, read-out: E.C.50 CQ",2.2 µM
same,EC50,"[3]; PBMC, Gen. K20R E35D M36I I54V V82T, read-out: E.C.50 CQ",1.8 µM
same,EC50,"[3]; PBMC, Gen. V82F L90M, read-out: E.C.50 CQ",2.8 µM
same,EC50,"[3]; read-out: E.C.50 CQ (uM), PBMC, Gen. L10R M46I L63P V82T",1.5 µM
same,S.I. CQ,"[3]; PBMC, Gen. G48V V82A",3.6
same,Fen. CQ (fold),"[3]; PBMC, Gen. G48V V82A",1.3X fold
same,S.I. CQ,"[3]; PBMC, Gen. I84V L90M",4
same,Fen. CQ (fold),"[3]; PBMC, Gen. I84V L90M",1.2X fold
same,S.I. CQ,[3]; [5],5.5
same,Fen. CQ (fold),[3]; [5],1X fold
same,S.I. CQ,"[3]; PBMC, Gen. L10R M46I L63P V82T",5.5
same,Fen. CQ (fold),"[3]; PBMC, Gen. L10R M46I L63P V82T",1X fold
same,S.I. CQ,"[3]; PBMC, Gen. V82F L90M",3.4
same,Fen. CQ (fold),"[3]; PBMC, Gen. V82F L90M",1.5X fold
same,EC50,"[4]; HIV-1 virus sensitive to the anti-retroviral treatment, range over each experiment, read-out: E.C.50",1500 to 3500 nM
same,EC50,"[4]; PBMC, Virus N°1, read-out: E.C.50 CQ",1500 nM
same,EC50,"[4]; PBMC, Virus N°2, read-out: E.C.50 CQ",2200 nM
same,EC50,"[4]; PBMC, Virus N°3, read-out: E.C.50 CQ",1800 nM
same,EC50,"[4]; PBMC, Virus N°4, read-out: E.C.50 CQ",2500 nM
same,EC50,"[4]; PBMC, Virus N°5, read-out: E.C.50 CQ",2000 nM
same,S.I. CQ,"[4]; PBMC, Virus N°1",5
same,S.I. CQ,"[4]; PBMC, Virus N°2",4
same,S.I. CQ,"[4]; PBMC, Virus N°3",5
same,S.I. CQ,"[4]; PBMC, Virus N°4",3.5
same,S.I. CQ,"[4]; PBMC, Virus N°5",4
